Among the data in US8933075B2, “Compounds useful as antiviral agents, compositions, and methods of use” (priority 2010, dated 2015) are EC50 values, retold here.

The subject of this test is A/Udorn/72 (H3N2) virus. Briefly: Plaque assay in MDCK cells: EC50 by reduction of plaque number. Format: cell-based, influenza virus. Particulars: MDCK.

Take `O=C1/C(=C/c2oc(-c3ccc(F)cc3)cc2CCCCCO)SC(=S)N1C1C2CC3CC(C2)CC1C3` (stereo not shown) [Compound 106]: the EC50 (commonly the concentration at which the effect is half-maximal) was < 100 nM.

As to `O=C1/C(=C/c2oc(-c3ccc(F)cc3)cc2CCCCCCO)SC(=S)N1C1CC2CCC1C2` (stereo not shown) [Compound 107], the EC50 was < 100 nM. With `O=C1/C(=C/c2oc(-c3ccc(F)cc3)cc2CCCCCCO)SC(=S)N1C1C2CC3CC(C2)CC1C3` (stereo not shown) [Compound 108] the figure was < 100 nM. Next, `COc1cc(OC)cc(-c2cc(CCCCCO)c(/C=C3\SC(=S)N(C4CC5CCC4C5)C3=O)o2)c1` (stereo not shown) [Compound 109]: < 100 nM. With `COc1cc(OC)cc(-c2cc(CCCCCO)c(/C=C3\SC(=S)N(C4C5CC6CC(C5)CC4C6)C3=O)o2)c1` (stereo not shown) [Compound 110] the figure was < 100 nM; with `COc1cc(OC)cc(-c2cc(CCCCCCO)c(/C=C3\SC(=S)N(C4CC5CCC4C5)C3=O)o2)c1` (stereo not shown) [Compound 111], < 100 nM. Regarding `COc1cc(OC)cc(-c2cc(CCCCCCO)c(/C=C3\SC(=S)N(C4C5CC6CC(C5)CC4C6)C3=O)o2)c1` (stereo not shown) [Compound 112], the EC50 is < 100 nM.

On to `O=C1/C(=C/c2oc(-c3ccc(F)cc3)cc2CCCCO)SC(=S)N1C1CC2CCC1C2` (stereo not shown) [Compound 115], for which the EC50 is < 100 nM. With `O=C1/C(=C/c2oc(-c3ccc(F)cc3)cc2CCCCO)SC(=S)N1C1C2CC3CC(C2)CC1C3` (stereo not shown) [Compound 116] the figure was < 100 nM; with `NCCCc1cc(-c2ccc(F)cc2)oc1/C=C1\SC(=S)N(C2C3CC4CC(C3)CC2C4)C1=O` (stereo not shown) [Compound 126], < 100 nM; with `NCCCc1cc(-c2ccc(F)cc2)oc1/C=C1\SC(=S)N(C2CC3CCC2C3)C1=O` (stereo not shown) [Compound 127], < 100 nM. With `COc1cc(OC)cc(-c2cc(/C=C/C(=O)O)c(/C=C3\SC(=S)N(C4C5CC6CC(C5)CC4C6)C3=O)o2)c1` (stereo not shown) [Compound 131] the figure was < 100 nM; with `COc1cc(OC)cc(-c2cc(CCC(=O)O)c(/C=C3\SC(=S)N(C4CC5CCC4C5)C3=O)o2)c1` (stereo not shown) [Compound 132], < 100 nM; with `COc1cc(OC)cc(-c2cc(CCCN(CC(=O)O)CC(=O)O)c(/C=C3\SC(=S)N(C4CC5CCC4C5)C3=O)o2)c1` (stereo not shown) [Compound 133], 100 to 250 nM. With `COc1cc(OC)cc(-c2cc(CCCC(C(=O)O)C(=O)O)c(/C=C3\SC(=S)N(C4CC5CCC4C5)C3=O)o2)c1` (stereo not shown) [Compound 134] the figure was < 100 nM; with `COc1cc(OC)cc(-c2cc(CCCC(C(=O)O)C(=O)O)c(/C=C3\SC(=S)N(C4C5CC6CC(C5)CC4C6)C3=O)o2)c1` (stereo not shown) [Compound 135], 100 to 250 nM. Compound `COc1cc(O)cc(-c2cc(CCCC(C(=O)O)C(=O)O)c(/C=C3\SC(=S)N(C4C5CC6CC(C5)CC4C6)C3=O)o2)c1` (stereo not shown) [Compound 136] showed an EC50 of 100 to 250 nM. With `COc1cc(OC)cc(-c2cc(CCCOC(=O)[C@H](CCCNC(=O)OC(C)(C)C)NC(=O)OC(C)(C)C)c(/C=C3\SC(=S)N(C4CC5CCC4C5)C3=O)o2)c1` (stereo partly shown) [Compound 139] the figure was < 100 nM; with `COc1cc(OC)cc(-c2cc(CCCOC(=O)[C@H](CC(C)C)NC(=O)OCC3c4ccccc4-c4ccccc43)c(/C=C3\SC(=S)N(C4CC5CCC4C5)C3=O)o2)c1` (stereo partly shown) [Compound 141], 250 to 1000 nM.

In the case of `COc1cc(OC)cc(-c2cc(CCCOC(=O)[C@H](Cc3ccccc3)NC(=O)OC(C)(C)C)c(/C=C3\SC(=S)N(C4CC5CCC4C5)C3=O)o2)c1` (stereo partly shown) [Compound 142], the EC50 is < 100 nM. Next, `COc1cc(OC)cc(-c2cc(CCCOC(=O)[C@@H](NC(=O)OC(C)(C)C)c3ccccc3)c(/C=C3\SC(=S)N(C4CC5CCC4C5)C3=O)o2)c1` (stereo partly shown) [Compound 146]: < 100 nM; `CC(C)(C)OC(=O)N[C@@H](CC(N)=O)C(=O)OCCCc1cc(-c2ccc(F)cc2)oc1/C=C1\SC(=S)N(C2CC3CCC2C3)C1=O` (stereo partly shown) [Compound 147]: < 100 nM; `CC(C)(C)OC(=O)N[C@@H](CC(N)=O)C(=O)OCCCc1cc(-c2ccc(Cl)cc2)oc1/C=C1\SC(=S)N(C2CC3CCC2C3)C1=O` (stereo partly shown) [Compound 148]: < 100 nM. Next, `COc1cc(O)cc(-c2cc(CCCOC(=O)[C@H](CC(=O)OC(C)(C)C)NC(=O)OC(C)(C)C)c(/C=C3\SC(=S)N(C4CC5CCC4C5)C3=O)o2)c1` (stereo partly shown) [Compound 149]: < 100 nM. Next, `COc1cc(OC)cc(-c2cc(CCCCCOC(=O)[C@H](CC(N)=O)NC(=O)OC(C)(C)C)c(/C=C3\SC(=S)N(C4CC5CCC4C5)C3=O)o2)c1` (stereo partly shown) [Compound 150]: < 100 nM; `COc1cc(OC)cc(-c2cc(CCCOC(=O)[C@@H](N)Cc3ccccc3)c(/C=C3\SC(=S)N(C4CC5CCC4C5)C3=O)o2)c1` (stereo partly shown) [Compound 153]: < 100 nM. As to `COc1cc(OC)cc(-c2cc(CCCOC(=O)[C@@H](N)c3ccccc3)c(/C=C3\SC(=S)N(C4CC5CCC4C5)C3=O)o2)c1` (stereo partly shown) [Compound 154], the concentration for a half-maximal effect (EC50) is < 100 nM. With `COc1cc(OC)cc(-c2cc(CCCNC(=O)[C@H](CC(=O)OC(C)(C)C)NC(=O)OC(C)(C)C)c(/C=C3\SC(=S)N(C4CC5CCC4C5)C3=O)o2)c1` (stereo partly shown) [Compound 158] the figure was < 100 nM. Next, `COc1cc(OC)cc(-c2cc(CCCNC(=O)[C@H](CC(C)C)NC(=O)OCC3c4ccccc4-c4ccccc43)c(/C=C3\SC(=S)N(C4CC5CCC4C5)C3=O)o2)c1` (stereo partly shown) [Compound 159]: < 100 nM; `COc1cc(OC)cc(-c2cc(CCCNC(=O)[C@H](Cc3ccc(OC(C)(C)C)cc3)NC(=O)OC(C)(C)C)c(/C=C3\SC(=S)N(C4CC5CCC4C5)C3=O)o2)c1` (stereo partly shown) [Compound 160]: < 100 nM; `COc1cc(OC)cc(-c2cc(CCCNC(=O)[C@H](Cc3cn(C(c4ccccc4)(c4ccccc4)c4ccccc4)cn3)NC(=O)OCC3c4ccccc4-c4ccccc43)c(/C=C3\SC(=S)N(C4CC5CCC4C5)C3=O)o2)c1` (stereo partly shown) [Compound 161]: < 100 nM.

For the compound `COc1cc(OC)cc(-c2cc(CCCNC(=O)[C@@H](NC(=O)OC(C)(C)C)c3ccccc3)c(/C=C3\SC(=S)N(C4CC5CCC4C5)C3=O)o2)c1` (stereo partly shown) [Compound 162], the EC50 was < 100 nM. With `COc1cc(OC)cc(-c2cc(CCCNC(=O)[C@@H](N)CC(=O)O)c(/C=C3\SC(=S)N(C4CC5CCC4C5)C3=O)o2)c1` (stereo partly shown) [Compound 169] the figure was < 100 nM; with `COc1cc(OC)cc(-c2cc(CCCNC(=O)[C@@H]3CCCN3)c(/C=C3\SC(=S)N(C4CC5CCC4C5)C3=O)o2)c1` (stereo partly shown) [Compound 172], < 100 nM. Next, `COc1cc(O)cc(-c2cc(CCCNC(=O)[C@@H](N)CCCN=C(N)N)c(/C=C3\SC(=S)N(C4CC5CCC4C5)C3=O)o2)c1` (stereo partly shown) [Compound 175]: < 100 nM; `COC(=O)[C@@H](O)[C@H](O)C(=O)OCCCc1cc(-c2ccc(F)cc2)oc1/C=C1\SC(=S)N(C2CC3CCC2C3)C1=O` (stereo partly shown) [Compound 177]: < 100 nM; `O=C1/C(=C/c2oc(-c3ccc(Cl)cc3)cc2CCCN2CCOCC2)SC(=S)N1C1CC2CCC1C2` (stereo not shown) [Compound 179]: < 100 nM. With `O=C1/C(=C/c2oc(-c3ccc(F)cc3)cc2CCCN2CCOCC2)SC(=S)N1C1CC2CCC1C2` (stereo not shown) [Compound 180] the figure was < 100 nM.

For `COc1cc(OC)cc(-c2cc(CCCN3CCOCC3)c(/C=C3\SC(=S)N(C4CC5CCC4C5)C3=O)o2)c1` (stereo not shown) [Compound 181], the EC50 was < 100 nM. With `COc1cc(OC)cc(-c2cc(CCCN3CCOCC3)c(/C=C3\SC(=S)N(C4C5CC6CC(C5)CC4C6)C3=O)o2)c1` (stereo not shown) [Compound 182] the figure was < 100 nM; with `O=C1/C(=C/c2oc(-c3ccc(F)cc3)cc2CCCN2CCOCC2)SC(=S)N1C1C2CC3CC(C2)CC1C3` (stereo not shown) [Compound 183], < 100 nM; with `O=C1/C(=C/c2oc(-c3ccc(Cl)cc3)cc2CCCN2CCOCC2)SC(=S)N1C1C2CC3CC(C2)CC1C3` (stereo not shown) [Compound 184], < 100 nM. With `O=C1/C(=C/c2oc(-c3ccc(F)cc3)cc2CCCN2CCNCC2)SC(=S)N1C1CC2CCC1C2` (stereo not shown) [Compound 187] the figure was < 100 nM.

Regarding `COc1cc(OC)cc(-c2cc(CCCN3CCNCC3)c(/C=C3\SC(=S)N(C4CC5CCC4C5)C3=O)o2)c1` (stereo not shown) [Compound 188], the EC50 is < 100 nM.

On to `O=C1/C(=C/c2oc(-c3ccc(F)cc3)cc2CCCN2CCNCC2)SC(=S)N1C1C2CC3CC(C2)CC1C3` (stereo not shown) [Compound 189], for which the 50% effective concentration (EC50) was < 100 nM. Next, `COc1cc(OC)cc(-c2cc(CCCN3CCNCC3)c(/C=C3\SC(=S)N(C4C5CC6CC(C5)CC4C6)C3=O)o2)c1` (stereo not shown) [Compound 190]: < 100 nM; `O=C1/C(=C/c2oc(-c3ccc(Cl)cc3)cc2CCCN2CCNCC2)SC(=S)N1C1C2CC3CC(C2)CC1C3` (stereo not shown) [Compound 191]: < 100 nM.

As to `O=C1/C(=C/c2oc(-c3ccc(Cl)cc3)cc2CCCCCN2CCNCC2)SC(=S)N1C1CC2CCC1C2` (stereo not shown) [Compound 192], the EC50 is < 100 nM.

In the case of `N=C(N)NCCCc1cc(-c2ccc(Cl)cc2)oc1/C=C1\SC(=S)N(C2CC3CCC2C3)C1=O` (stereo not shown) [Compound 197], the EC50 was < 100 nM. Next, `COc1cc(OC)cc(-c2cc(CCCn3cc(CO)nn3)c(/C=C3\SC(=S)N(C4C5CC6CC(C5)CC4C6)C3=O)o2)c1` (stereo not shown) [Compound 199, (Z)-3-(adamantan-2-yl)-5-((5-(3′,5′-dimethoxyphenyl)-3-(3-(4′-(hydroxymethyl)-1H-1′,2′,3′-triazol-1-yl)-propyl)furan-2-yl)methylene)-2-thioxothiazolidin-4-one]: < 100 nM. Next, `COc1cc(OC)cc(-c2cc(CCCOC[C@@H](O)CO)c(/C=C3\SC(=S)N(C4CC5CCC4C5)C3=O)o2)c1` (stereo partly drawn) [Compound 202, (Z)-3-(bicyclo[2.2.1]heptan-2-yl)-5-((3-(3-((S)-2,3-dihydroxypropoxy)propyl)-5-(3′,5′-dimethoxy-phenyl)-furan-2-yl)methylene)-2-thioxothiazolidin-4-one]: < 100 nM; `O=C1/C(=C/c2oc(-c3ccc(Cl)cc3)cc2CCCOC[C@@H](O)CO)SC(=S)N1C1CC2CCC1C2` (stereo partly drawn) [Compound 203, (Z)-3-(bicyclo[2.2.1]heptan-2-yl)-5-((3-(3-((S)-2,3-dihydroxypropoxy)propyl)-5-(4′-chlorophenyl)-furan-2-yl)methylene)-2-thioxothiazolidin-4-one]: < 100 nM.
